Test results taken from patent US20120108563A1, “Methods Of Treating Liposarcoma” (Infinity Pharmaceuticals, Inc., priority 2009, published 2012).

System: dedifferentiated metastatic liposarcoma
Assay: Administration of compound 2 to a human subject with dedifferentiated metastatic liposarcoma (imaging assessment, RECIST)
Type: in vivo
Conditions: one human patient
Method: A human subject with dedifferentiated metastatic liposarcoma was treated with compound 2 at 400 mg/m^2. The patient received two doses of compound 2 at 400 mg/m^2 during the first cycle of therapy. The patient received two doses at 300 mg/m^2 during the second cycle of therapy. The patient then received 225 mg/m^2 for seven cycles of therapy. […] The patient received a total of 9 cycles of compound 2 with maximal tumor shrinkage occurring after 7 cycles (54% tumor shrinkage).

[1] = after first cycle of therapy (two doses at 400 mg/m^2)

## C=CCNc1c(O)cc2c(O)c1C[C@@H](C)C[C@H](OC)[C@H](O)[C@@H](C)/C=C(\C)[C@H](OC(N)=O)[C@@H](OC)/C=C\C=C(/C)C(=O)N2.Cl [compound 2, Hydrochloride Salt of the Hydroquinone of 17-AAG]
After 7 cycles, of 9 cycles in total
  maximal tumor shrinkage: 54%
[1]
  imaging assessment of response (RECIST): stable disease
  tumor shrinkage using Response Evaluation Criteria in Solid Tumors (RECIST): 28%
By the end of cycle 3
  response achieved: partial response
By the end of cycle 3 (cycle 1 at 400 mg/m^2, cycle 2 at 300 mg/m^2, then 225 mg/m^2)
  tumor shrinkage: 35%
